The subject of one data set is Mouse. Details: species or system Male mice. The settings on record: in vivo, po, 4320 min. The procedure:
1. Determination of the minimum toxic dose.
Male mice of 20-25 g weight are administered maximum doses of 300 mg/kg of the test substance p.o. The animals were carefully observed for 3 hours for symptoms of toxicity. Over a period of 72 hours after administration, all symptoms and cases of death are additionally recorded. Concomitant symptoms are likewise observed and recorded. If death or strong toxic symptoms are observed, further mice are administered increasingly lower doses until toxic symptoms no longer occur. The lowest dose which causes death or strong toxic symptoms is given in the following Table A as the minimum toxic dose. The example numbers given in Table A relate to the subsequent preparation examples.

For another data set, the system named is stomach motility. Nature of the data set: Determination of effect on stomach motility in anaesthetised rats. In kind it is in vivo, rats of the SIV 50 strain. The settings on record: rat, 100 μmole/kg i.p.; for change in vivo at 100 µmol/kg: ip, read-out: Maximum Amplitude Increase (increase in % of control amplitude). The procedure: 2. Determination of effect on stomach motility in anaesthetised rats.
For the tests, groups of 5-6 fasting rats of the SIV 50 strain having a body weight of 220-290 g were used in each test which had been anaesthetised with a ketamine/xylazine mixture. The animals received an initial dose of 1 ml/kg of a solution of 50 mg/ml of ketamine and 10 mg/ml of xylazine administered i.p., and the anaesthetic level was maintained by a continuous intraperitoneal infusion of the same solution at an infusion rate of 1 ml/kg/h. The animals were tracheotomised and laparotomised. After applying a pylorus ligature, a stomach tube was inserted into the stomach and connected at the other end by means of a three-way tap to a calibrated pressure transducer (Statham Element P 23 ID). A corresponding tube was inserted rectally 8-9 cm into the colon and likewise connected in the same manner to a calibrated pressure transducer of the same type. The stomachs of the animals were then filled with 2 ml of water via the tube. After a stabilisation phase of 40 min, the pressure variations in the stomach and colon were measured over a test period of 2 hours and 20 minutes, and the amplitudes produced by the phasic gastric motility were recorded by means of a Watanabe multirecorder (MC 6621). The geometric mean values of the amplitudes during the first 20 min were determined for the individual animals and used as control amplitude values. After the first 20 min, the test substances were administered i.p. The maximum increase in amplitude (=mean value of the 20 minute period in which the highest increase in amplitude occurs) caused by the test substances was determined in % increase of the control amplitude values determined before administration of the test substances, and the mean value for the animal group is given in the following Table A. In addition, the maximum increase in the mean gastric tone caused by the test substances during the test period compared with the mean gastric tone existing before administration of the test substances was recorded. This increase in gastric tone is given in Table A in cm of H2 O (mean value of the animal group). In the colon, the test substances cause amplitude damping.

In another data set the test system is 5-HT1-like receptors. The data set can be described thus: Serotonin-agonistic contractions in segments of the isolated basilar artery of the pig (in vitro antimigraine activity). The settings on record: porcine basilar artery, in vitro. In kind it is cell-based. The text has this:
3. Investigation of Properties Indicating Antimigraine Activity of Test Substance in vitro. Migraine pains are associated with excessive dilation of the cranial vascular system. […] This property of the test substances can be used as a basis for predicting anti-migraine activity. The serotoninagonistic activity of the substances on 5-HT1 -like receptors can be determined in vitro in isolated organ strips from the basilar artery of a pig. […] Such a contraction is also produced by the test substances and is a good index of the antimigraine activity of the substances. The tests are carried out according to the method described by van Charldorp et al. (Naunyn-Schmiedeb. Arch. Pharmacol. supp. to volume 341, R89, 1990 and Eur. J. Pharmacol. 183, 1106-1107, 1990). Experimental description of the in vitro determination of the effect inducing serotonin-agonistic contractions in segments of the isolated basilar artery of the pig. For the experiment, helical segments of the basilar artery of pigs were used which were isolated from pig brains supplied by a slaughterhouse. Each strip was fixed in an organ bath consisting of 10 ml of a modified Tyrode solution such that the tissue was under a tension of 10 mN. […] The solution was modified by adding 10^-8 mol/l of indomethacin, 10^-7 mol/l of atropine and 10^-7 mol/l of propanolol and adjusted to pH=7.4. The bath was aerated with a mixture of 95% O2 and 5% CO2. After an equilibration phase of 1 hour a contraction of the tissue was produced twice, in each case by addition of serotonin at a concentration of 10^-5 mol/l and the preparation was subsequently washed out. The contraction effect was then measured with increasing serotonin concentration and a cumulative concentration effect curve for serotonin was drawn up. A cumulative concentration effect curve was drawn up for the test substance on the same preparation (after washing out again). In the following Table B, the maximum contraction caused by the test substances in relationship to the maximum contraction produced by serotonin, and the negative logarithm of that concentration of the test substance which produces 50% of the maximum contraction which can be produced by this test substance (=pD2), and the relative potency calculated as pD2 of the test substance relative to the pD2 of serotonin determined on the same piece of artery are given.

Bounds are passed on as bounds.

For the compound `NCCC1Cc2c[nH]c3cccc(c23)C(=O)N1` (stereo not shown) [Example 8, 4-(2-Aminoethyl)-3,4,5,6-tetrahydro-6-oxo-1H-azepino[5,4,3-cd]indole], the “Minimum Toxic Dose” value in the data set with Mouse is more than 300 mg/kg. Moreover, in the data set on stomach motility, the change in vivo at 100 µmol/kg stood at 569%.
In the case of `COc1ccc(CCn2cc3c4c(cccc42)C(=O)NCC3CN)cc1OC` (stereo not shown) [Example 36], in the data set with Mouse, the “Minimum Toxic Dose” value is more than 300 mg/kg. In the data set with stomach motility, the change in vivo at 100 µmol/kg is 351% and the “Gastric Tone Increase” value is reported as 11.5 cm H2O.
Regarding `O=C1NC(CNC2CCCCC2)Cc2c[nH]c3cccc1c23` (stereo not shown) [Example 28], in the data set with Mouse, the “Minimum Toxic Dose” value is more than 300 mg/kg. Besides, in the data set on stomach motility, the change in vivo at 100 µmol/kg was determined as 17% and the “Gastric Tone Increase” value worked out at 0.5 cm H2O.
In the case of `O=C1NC(CNC2CC2)Cc2c[nH]c3cccc1c23` (stereo not shown) [Example 45], in the data set with Mouse, the “Minimum Toxic Dose” value is on record as more than 300 mg/kg. In the data set with stomach motility, the change in vivo at 100 µmol/kg was determined as 580% and the “Gastric Tone Increase” value was 3.5 cm H2O.
For the compound `CC(C)(C)NCC1Cc2c[nH]c3cccc(c23)C(=O)N1` (stereo not shown) [Example 31], the “Minimum Toxic Dose” value with Mouse was more than 300 mg/kg. Besides, the change in vivo at 100 µmol/kg with stomach motility amounted to 928%.
With `CC(C)NCC1CNC(=O)c2cccc3[nH]cc1c23` (stereo not shown) [Example 6, 3-Isopropylaminomethyl-3,4,5,6-tetrahydro-6-oxo-1H-azepino[5,4,3-cd]indole], the “Minimum Toxic Dose” value with Mouse is on record as more than 300 mg/kg. In the data set on stomach motility, the change in vivo at 100 µmol/kg was determined as 609% and the “Gastric Tone Increase” value stood at 15.4 cm H2O.
Turning to `COCN1CC(CN)c2c[nH]c3cccc(c23)C1=O` (stereo not shown) [Example 12, 3-aminomethyl-5-methoxymethyl-3,4,5,6-tetrahydro-6-oxo-1H-azepino[5,4,3-cd]indole], in the data set with 5-HT1-like receptors, the “Maximum Contraction Produced by Test Substance Relative to Maximum Contraction Produced by Serotonin = 1” value is listed as 0.7 and the “relative potency calculated as pD2 of the test substance relative to the pD2 of serotonin determined on the same piece of artery” value is on record as 0.050. The “pD2 = neg. log of Concentration Which Produces 50% of Maximum Contraction” value with 5-HT1-like receptors (concentrations in mol/l) worked out at 6.0.
Regarding `CCN(CC)CC1CNC(=O)c2cccc3[nH]cc1c23` (stereo not shown) [Example 5b, 3-Diethylaminomethyl-3,4,5,6-tetrahydro-6-oxo-1H-azepino[5,4,3-cd]indole], the “Minimum Toxic Dose” value in the data set with Mouse was more than 300 mg/kg. For the same compound, in the data set with stomach motility, the change in vivo at 100 µmol/kg turned out to be 449% and the “Gastric Tone Increase” value was 3.8 cm H2O.
In the case of `CN(C)CC1CNC(=O)c2cccc3[nH]cc1c23` (stereo not shown) [Example 39], in the data set on Mouse, the “Minimum Toxic Dose” value is given as more than 300 mg/kg. In the data set on stomach motility, the change in vivo at 100 µmol/kg stood at 569% and the “Gastric Tone Increase” value is listed as 1.8 cm H2O.
Regarding `CC(C)n1cc2c3c(cccc31)C(=O)NCC2CN` (stereo not shown) [Example 34], the change in vivo at 100 µmol/kg in the data set with stomach motility came out at 467%.
Take `Cc1ccc(CNCC2CNC(=O)c3cccc4[nH]cc2c34)cc1` (stereo not shown) [Example 24]: the “Minimum Toxic Dose” value with Mouse is recorded as more than 300 mg/kg. Besides, the change in vivo at 100 µmol/kg in the data set with stomach motility came to 195%.
`CCCCNCC1CNC(=O)c2cccc3[nH]cc1c23` (stereo not shown) [Example 41]: the “Minimum Toxic Dose” value with Mouse is more than 300 mg/kg. In addition, in the data set with stomach motility, the change in vivo at 100 µmol/kg was determined as 234% and the “Gastric Tone Increase” value was 2.7 cm H2O.
As for `NCC1CNC(=O)c2cccc3c2c1cn3Cc1ccccc1` (stereo not shown) [Example 10, 1-Benzyl-3-aminomethyl-3,4,5,6-tetrahydro-6-oxo-1H-azepino[5,4,3-cd]indole], the “Minimum Toxic Dose” value in the data set on Mouse is more than 300 mg/kg. Also, in the data set on stomach motility, the change in vivo at 100 µmol/kg was 663% and the “Gastric Tone Increase” value is given as 10.5 cm H2O.
The corresponding values for `CCCNCC1CNC(=O)c2cccc3[nH]cc1c23` (stereo not shown) [Example 38] are more than 300 mg/kg, 559% and 12.4 cm H2O.
In the case of `O=C1NCC(CN2CCCCC2)c2c[nH]c3cccc1c23` (stereo not shown) [Example 14, 3-(1-Piperidinylmethyl)-3,4,5,6-tetrahydro-6-oxo-1H-azepino[5,4,3-cd]indole], the “Minimum Toxic Dose” value with Mouse is more than 300 mg/kg. Besides, the “Gastric Tone Increase” value in the data set with stomach motility is listed as 3.0 cm H2O.
Take `O=C1NC(CN2CCN(c3ccccc3)CC2)Cc2c[nH]c3cccc1c23` (stereo not shown) [Example 17, 4-(4-Phenylpiperazin-1-ylmethyl)-3,4,5,6-tetrahydro-6-oxo-1H-azepino[5,4,3-cd]indole]: the “Minimum Toxic Dose” value in the data set on Mouse is listed as more than 300 mg/kg. For the same compound, the change in vivo at 100 µmol/kg in the data set on stomach motility was 293%.
Consider `CCCN(CCC)CC1CNC(=O)c2cccc3[nH]cc1c23` (stereo not shown) [Example 40], for which the “Minimum Toxic Dose” value in the data set on Mouse is recorded as more than 300 mg/kg. For the same compound, in the data set with stomach motility, the change in vivo at 100 µmol/kg worked out at 997% and the “Gastric Tone Increase” value was found to be 6.5 cm H2O.
With `O=C1NCC(CN2CCCC2)c2c[nH]c3cccc1c23` (stereo not shown) [Example 37], the “Minimum Toxic Dose” value in the data set on Mouse is given as more than 300 mg/kg. Also, in the data set with stomach motility, the change in vivo at 100 µmol/kg was found to be 950% and the “Gastric Tone Increase” value worked out at 4.0 cm H2O.
On to `O=C1NCC(CNCc2ccccc2)c2c[nH]c3cccc1c23` (stereo not shown) [Example 2, 3-Benzylaminomethyl-3,4,5,6-tetrahydro-6-oxo-1H-azepino[5,4,3-cd]indole], for which the “Minimum Toxic Dose” value in the data set with Mouse is listed as more than 300 mg/kg. In addition, the change in vivo at 100 µmol/kg in the data set on stomach motility was 239%.
Turning to `O=C1NCC(CNCC2CC2)c2c[nH]c3cccc1c23` (stereo not shown) [Example 47], in the data set on stomach motility, the “Gastric Tone Increase” value is listed as 6.7 cm H2O.
On to `NCC1CNC(=O)c2cccc3c2c1cn3CCCc1ccccc1` (stereo not shown) [Example 13, 3-Aminomethyl-1-(3-phenylpropyl)-3,4,5,6-tetrahydro-6-oxo-1H-azepino[5,4,3-cd]indole], for which the “Minimum Toxic Dose” value in the data set on Mouse is given as more than 300 mg/kg. For the same compound, in the data set with stomach motility, the change in vivo at 100 µmol/kg is 332% and the “Gastric Tone Increase” value stood at 7.2 cm H2O.
For the compound `CN1CCN(CC2Cc3c[nH]c4cccc(c34)C(=O)N2)CC1` (stereo not shown) [Example 25], the “Minimum Toxic Dose” value with Mouse came out at 300 mg/kg. For the same compound, the change in vivo at 100 µmol/kg with stomach motility stood at 206%.
Turning to `CCNCC1CNC(=O)c2cccc3[nH]cc1c23` (stereo not shown) [Example 5a, 3-Ethylaminomethyl-3,4,5,6-tetrahydro-6-oxo-1H-azepino[5,4,3-cd]indole], the “Minimum Toxic Dose” value in the data set with Mouse is more than 300 mg/kg. In addition, the “Gastric Tone Increase” value in the data set on stomach motility was found to be 9.5 cm H2O.
As for `COc1ccc(CCNCC2CNC(=O)c3cccc4[nH]cc2c34)cc1OC` (stereo not shown) [Example 32], the “Minimum Toxic Dose” value in the data set with Mouse is listed as more than 300 mg/kg. Moreover, the change in vivo at 100 µmol/kg in the data set on stomach motility is 922%.
Regarding `O=C1NC(CN2CCOCC2)Cc2c[nH]c3cccc1c23` (stereo not shown) [Example 29], the “Minimum Toxic Dose” value with Mouse was more than 300 mg/kg. For the same compound, in the data set on stomach motility, the change in vivo at 100 µmol/kg was 154%.
As for `CN(C)C=NCC1CNC(=O)c2cccc3[nH]cc1c23` (stereo not shown) [Example 15, 3-(Dimethylaminomethylideneaminomethyl)-3,4,5,6-tetrahydro-6-oxo-1H-azepino[5,4,3-cd]indole], in the data set on Mouse, the “Minimum Toxic Dose” value is more than 300 mg/kg. In addition, in the data set on stomach motility, the change in vivo at 100 µmol/kg was found to be 308% and the “Gastric Tone Increase” value is 3.1 cm H2O.

Source of the values: patent US5272143A, “6-oxoazepinoindole compounds, and pharmaceutical compositions containing them” (Kali-Chemie Pharma GmbH, priority 1991, dated 1993).
